From paper PMC6547440, “The HRP3 PWWP domain recognizes the minor groove of double-stranded DNA and recruits HRP3 to chromatin” (Nucleic Acids Research, 2019)
No end group written: not given here. Me3 = trimethyl-lysine (Lys side chain trimethylated); Me2 = dimethyl-lysine (Lys side chain dimethylated)

Assays:
chromatin of HepG2 cells [1] = assay: Subcellular fractionation, chromatin binding of GFP-HRP3 variants in HepG2 cells; assay type: cell-based, human; conditions: cellular fractionation, western blot anti-GFP
Experimental: (§1) HepG2 (ATCC HB-8065) and HEK293T human embryonic kidney cells (ATCC #CRL-11268) were cultured in Dulbecco’s modified Eagle’s medium supplemented with 10% FBS. Stable overexpression of wild-type or mutant HRP3 in HepG2 cells was performed using FUGW lentiviral constructs expressing wild-type or mutant HRP3. Lentiviral vector infections ([47]) and plasmid transfections ([48]) were performed as previously described. Overexpression efficiency was determined by western blot.
Cellular fractionations were performed using a Subcellular Fractionation Kit (Thermo Scientific, cat. 78840) according to the manufacturer’s protocol. A total of 1 × 10^6 cells were used for each cell line’s fractionation. Soluble nuclear contents and chromatin-bound nuclear contents were analysed by western blotting using anti-GFP (gta-20, Chromo-Tek) and anti-histone H3 (4499S, CST) antibodies.

H3K36me3 peptide = assay: NMR titration, loss of H3K36me3 peptide binding of HRP3 PWWP mutants; conditions: versus wild-type
Experimental: (§2) All 2D ^1H-^15N HSQC NMR spectra were collected on the Bruker Avance III HD 600 MHz and 800 MHz spectrometers at 298 K. The NMR data were processed by NMRPipe ([39]) and analysed by KUJIRA ([40]) running with NMRview ([41]) softwares. Chemical shift perturbation experiments were carried out using ^15N-labelled HRP3 PWWP (residues 1–110) dissolved in buffer containing 20 mM PBS at pH 6.9, 20 mM NaCl and 2 mM DTT. A series of 2D ^1H-^15N HSQC spectra were recorded at HRP3 PWWP:H3K36me3/2/1/0 (residues 29–41) molar ratios of 1:0, 1:0.5, 1:1.5, 1:4, 1:6, 1:10, 1:15 and 1:20, respectively. The combined chemical shift perturbation was calculated using the following equation: Δδ = [(Δδ^1H)^2 + (Δδ^15N/5)^2]^1/2. Dissociation constants were calculated by fitting the data to a single-site ligand-binding model (SigmaPlot).

chromatin of HepG2 cells [2] = assay: ChIP-Seq of GFP-HRP3 variants in HepG2 cells; assay type: cell-based, human; conditions: ChIP-Seq with GFP antibody, HepG2, two biological replicates combined
Experimental: as §1
For chromatin immunoprecipitation, HepG2 cells were cross-linked with 1% formaldehyde at 37°C for 10 min and quenched with 0.125 M glycine for 5 min at room temperature. ChIP was performed using a ChIP assay kit (Millipore) according to the manufacturer’s protocol. Antibodies used for ChIP were GFP (gta-20, Chromo-Tek) and H3K36me3 (ab9050, abcam).
ChIP-Seq data were aligned to human genome hg19 using Bowtie 1.0 allowing one mismatch. Two biological replicates were performed and combined for the analysis. Analysis was performed using the Galaxy ([49]) and Cistrome ([50]) Platform and via custom R scripts for Bioconductor ([51]). Peak calling was performed using MACS2. Promoter definitions were downloaded from the UCSC browser ([52]). DNase I hypersensitivity and MNase-Seq data from ENCODE (GSM816662, GSM920557) ([53]) were used.

HRP3 PWWP WT = target: T1, HRP3 PWWP WT (Homo sapiens, UniProt Q9Y3E1); assay: NMR titration of H3K36 peptides with wild-type HRP3 PWWP; assay type: binding; conditions: 15N-labelled HRP3 PWWP (1–110) WT, H3 residues 29–41, 20 mM PBS pH 6.9, 20 mM NaCl, 2 mM DTT, 298 K
T1 construct: using ^15N-labelled HRP3 PWWP (residues 1–110) dissolved in buffer; 6xHis-SUMO (cleaved yes); made in house; host or cells: Escherichia coli Rosetta (DE3)
T1 sequence (Q9Y3E1 1-110): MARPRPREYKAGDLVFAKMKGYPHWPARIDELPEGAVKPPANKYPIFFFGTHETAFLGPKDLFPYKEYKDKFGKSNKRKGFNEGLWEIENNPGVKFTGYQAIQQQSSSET
Experimental: as §2

HRP3 PWWP = assay: DNA geometry analysis of the PWWP/DNA complex structures; design: species or system human
Experimental: DNA geometry was analysed with the 3DNA ([42]) and Curves+ ([43]) programs. Electrostatic potentials were calculated using the DelPhi program ([44]). The minor groove width was measured according to the method described ([45]). In detail, the distances between the ith (i indicates the number of the base from one chain) phosphate atom from one chain and the (i + 4)th atom from the paired chain were used to describe the minor groove width at the ith base. Electrostatic potentials were calculated at the midpoints between the above phosphate atom pairs used to calculate the minor groove widths.

[3] = target: T2, HRP3 PWWP domain (residues 1–110) (human, UniProt Q9Y3E1 1-110); assay: NMR titration; 2D 1H-15N HSQC chemical shift perturbation of 15N-labelled HRP3 PWWP (1–110); H3 peptide (29–41) added to molar ratios 1:0 to 1:20; 298 K; 20 mM PBS pH 6.9, 20 mM NaCl, 2 mM DTT; single-site ligand-binding fit; conditions: both partners purified
T2 construct: HDGF-related protein 3 (HRP3, HDGFL3), human, residues 1-110 holding the PWWP domain; His-SUMO tag removed by ULP1 protease; also called HRP3 PWWP (1–110); HRP3(1-110); source: E. coli Rosetta (DE3), purified (nickel column, gel filtration), 15N-labelled
T2 sequence (Q9Y3E1 1-110): as above

[4] = target: T3, HRP3 PWWP domain (residues 1–110) F48A (human, UniProt Q9Y3E1 1-110, F48A); assay: as above; conditions: both partners purified
T3 construct: HDGF-related protein 3 (HRP3, HDGFL3), human, residues 1-110 holding the PWWP domain, aromatic cage mutant; they are not repeated for the mutants; source: E. coli Rosetta (DE3), purified (nickel column, gel filtration), 15N-labelled
T3 sequence (Q9Y3E1 1-110 F48A): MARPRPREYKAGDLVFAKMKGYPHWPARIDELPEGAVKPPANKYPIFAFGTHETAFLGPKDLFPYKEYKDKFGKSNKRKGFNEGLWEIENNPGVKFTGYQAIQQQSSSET

[5] = target: T4, HRP3 PWWP domain (residues 1–110) E53A (human, UniProt Q9Y3E1 1-110, E53A); assay: as above; conditions: both partners purified
T4 construct: HDGF-related protein 3 (HRP3, HDGFL3), human, residues 1-110 holding the PWWP domain; they are not repeated for the mutants; source: E. coli Rosetta (DE3), purified (nickel column, gel filtration), 15N-labelled
T4 sequence (Q9Y3E1 1-110 E53A): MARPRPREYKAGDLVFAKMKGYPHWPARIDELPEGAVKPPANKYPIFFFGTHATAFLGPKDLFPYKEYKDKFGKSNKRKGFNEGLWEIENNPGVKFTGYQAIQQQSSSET

[6] = target: T5, HRP3 PWWP domain (residues 1–110) Y22A (human, UniProt Q9Y3E1 1-110, Y22A); assay: as above; conditions: both partners purified
T5 construct: HDGF-related protein 3 (HRP3, HDGFL3), human, residues 1-110 holding the PWWP domain, aromatic cage mutant; they are not repeated for the mutants; source: E. coli Rosetta (DE3), purified (nickel column, gel filtration), 15N-labelled
T5 sequence (Q9Y3E1 1-110 Y22A): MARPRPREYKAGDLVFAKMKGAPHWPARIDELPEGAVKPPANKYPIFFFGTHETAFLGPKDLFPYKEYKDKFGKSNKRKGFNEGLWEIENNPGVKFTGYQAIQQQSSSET

HRP3 PWWP (1-110) WT = HRP3 PWWP (1-110) WT (UniProt Q9Y3E1 1-110); assay: MST; MST: 50 mM KCl, 10 mM Na cacodylate pH 6.5, 2 mM DTT, 200 nM FAM-dsDNA; ITC: 10 mM PBS pH 7.0, 50 mM NaCl, 2 mM b-ME, 20 C; nucleosome EMSA: 20 mM Tris pH 7.5; conditions: protein: recombinant, tags: none (His-SUMO removed), label: 5'-FAM (MST), blunt
Sequence of HRP3 PWWP (1-110) WT (Q9Y3E1 1-110): as the sequence (Q9Y3E1 1-110) above

[7] = target: HRP3 PWWP K18A/N76A/R78A (KNR-A) (UniProt Q9Y3E1 1-110, K18A;N76A;R78A); assay: as above; conditions: protein: recombinant; tags: none (His-SUMO removed); label: 5'-FAM (MST); blunt; self-complementary
Sequence of HRP3 PWWP K18A/N76A/R78A (KNR-A) (Q9Y3E1 1-110 K18A/N76A/R78A): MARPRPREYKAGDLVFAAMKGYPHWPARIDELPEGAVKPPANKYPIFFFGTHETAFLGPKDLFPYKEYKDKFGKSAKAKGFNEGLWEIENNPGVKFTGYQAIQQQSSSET

HRP3 PWWP N76A = HRP3 PWWP N76A (UniProt Q9Y3E1 1-110, N76A); assay: MST; affinity unchanged vs WT; MST: 50 mM KCl, 10 mM Na cacodylate pH 6.5, 2 mM DTT, 200 nM FAM-dsDNA; ITC: 10 mM PBS pH 7.0, 50 mM NaCl, 2 mM b-ME, 20 C; nucleosome EMSA: 20 mM Tris pH 7.5; conditions: protein: recombinant; tags: none (His-SUMO removed); label: 5'-FAM (MST); blunt; self-complementary
Sequence of HRP3 PWWP N76A (Q9Y3E1 1-110 N76A): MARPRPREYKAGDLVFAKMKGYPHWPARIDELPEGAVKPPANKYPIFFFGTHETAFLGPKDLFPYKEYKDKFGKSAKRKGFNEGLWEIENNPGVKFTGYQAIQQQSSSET

“K18A: DNA binding mutant of human HRP3, GFP fusion” was tested, and the “chromatin binding” value (chromatin of HepG2 cells [1]) was “dramatically reduced the chromatin binding”.

With E53A: HRP3 PWWP mutant E53A the “fold loss of binding affinity for the H3K36me3 peptide” value (“fold loss … for the H3K36me3 peptide” for short) (H3K36me3 peptide) was 5.7 fold.

“KYNR-A: HRP3 K18A/Y22A/N76A/R78A mutant, GFP fusion” was tested, and the “chromatin binding” value (chromatin of HepG2 cells [1]) was “dramatically reduced the chromatin binding” and the “chromatin binding / recruitment by ChIP-Seq” value (chromatin of HepG2 cells [2]) was “strong reduction in chromatin binding”.

CC(C)[C@H](NC(=O)CNC(=O)CNC(=O)[C@@H](NC(=O)[C@H](C)NC(=O)[C@@H]1CCCN1C(=O)[C@H](C)N)[C@@H](C)O)C(=O)N[C@@H](CCCCN)C(=O)N[C@@H](CCCCN)C(=O)N1CCC[C@H]1C(=O)N[C@@H](Cc1c[nH]cn1)C(=O)N[C@@H](CCCNC(=N)N)C(=O)N[C@@H](Cc1ccc(O)cc1)C(=O)O [H3K36me0] was tested, and the Kd (HRP3 PWWP WT) was 4700 ± 1200 µM.

For Y22A: HRP3 PWWP aromatic cage mutant, the “chromatin binding” value (chromatin of HepG2 cells [1]) was “but not the H3K36me3 binding amino acids (Y22A) alone, dramatically reduced the chromatin binding”, the “fold loss … for the H3K36me3 peptide” value (H3K36me3 peptide) was 15 fold and the “chromatin binding / recruitment by ChIP-Seq” value (chromatin of HepG2 cells [2]) was “weaker consequences”.

For CNCCCC[C@H](NC(=O)[C@@H](NC(=O)CNC(=O)CNC(=O)[C@@H](NC(=O)[C@H](C)NC(=O)[C@@H]1CCCN1C(=O)[C@H](C)N)[C@@H](C)O)C(C)C)C(=O)N[C@@H](CCCCN)C(=O)N1CCC[C@H]1C(=O)N[C@@H](Cc1c[nH]cn1)C(=O)N[C@@H](CCCNC(=N)N)C(=O)N[C@@H](Cc1ccc(O)cc1)C(=O)O [H3K36me1], the Kd (HRP3 PWWP WT) was 5100 ± 1900 µM.

In the case of 5′-GCGCGCGCGC-3′ [10-mer-GC], the average helical twist (HRP3 PWWP; 3DNA) is reported as 35.3 °, the average propeller twist (HRP3 PWWP; 3DNA) is reported as −7.3 ° and the “bending angle towards the minor groove per 6 bps” value (HRP3 PWWP; Curve+ software) is reported as 3.4 °. The “narrowing of minor groove upon PWWP binding” value (HRP3 PWWP; crystal structure of complex) was ~2.7 Å, the “width of the minor groove, PWWP-binding region” value (HRP3 PWWP; crystal structure of complex) was 10.5 Å and the “width of the minor groove, PWWP-free region” value (HRP3 PWWP; crystal structure of complex) was 13.2 Å.

F48A: HRP3 PWWP aromatic cage mutant was tested, and the “fold loss … for the H3K36me3 peptide” value (H3K36me3 peptide) was 6.7 fold.

With “KNR-A: HRP3 K18A/N76A/R78A mutant, GFP fusion” the “chromatin binding” value (chromatin of HepG2 cells [1]) was “dramatically reduced the chromatin binding” and the “chromatin binding / recruitment by ChIP-Seq” value (chromatin of HepG2 cells [2]) was “strong reduction in chromatin binding”.

B1: H3K36me3 histone peptide (H3 residues 29–41) (peptide, UniProt P68431 30-42, looked up)
peptide: APATGGVK(Me3)KPHRY
notes: histone H3, residues 29-41; also called H3K36me3 peptide; H3K36me3-containing peptide
For B1, the Kd [3] was 1300 µM, the “fold loss of binding affinity against wild type” value [4] was 6.7 fold and the “fold decrease of binding against wild type” value [5] was 5.7 fold. For the same molecule, the “fold loss of binding affinity against wild type” value [6] was 15 fold.

B2: H3K36me2 histone peptide (H3 residues 29–41) (peptide, UniProt P68431 30-42, looked up)
peptide: APATGGVK(Me2)KPHRY
notes: histone H3, residues 29-41; also called H3K36me2-containing peptide
B2 gave a Kd [3] of 2100 µM.

B3: 16-mer-random (dsDNA)
DNA 1: CAGGCTGGTCTTGAAC
DNA 2: GTTCAAGACCAGCCTG
In the case of B3, the Kd (HRP3 PWWP (1-110) WT) is reported as 3.2 µM.

B4: 16-mer-GC (dsDNA)
DNA 1: GCGCGCGCGCGCGCGC
DNA 2: GCGCGCGCGCGCGCGC
B4 gave a Kd (HRP3 PWWP (1-110) WT; self-complementary) of 2.8 µM and a binding signal [7] of 5.7 fold loss vs WT.

B5: 16-mer-TA (dsDNA)
DNA 1: TATATATATATATATA
DNA 2: TATATATATATATATA
B5 was tested, and the Kd (HRP3 PWWP (1-110) WT; self-complementary) was 1.3 µM, the binding signal [7] was 58 fold loss vs WT and the binding result (HRP3 PWWP N76A) was “binds”.
